# Where two headings read alike, the source gives them in different places.
# Tests used:
# human Nav1.8 = human Nav1.8 (Homo sapiens (Human), UniProt Q9Y5Y9); test: E-VIPR optical membrane potential assay with electrical stimulation (NaV1.8 IC50 activity); type: cell-based
# Description: Sodium channels are voltage-dependent proteins that can be activated by inducing membrane voltage changes by applying electric fields. The electrical stimulation instrument and methods of use are described in Ion Channel Assay Methods PCT/US01/21652, herein incorporated by reference and are referred to as E-VIPR. The instrument comprises a microtiter plate handler, an optical system for exciting the coumarin dye while simultaneously recording the coumarin and oxonol emissions, a waveform generator, a current- or voltage-controlled amplifier, and a device for inserting electrodes in well. Under integrated computer control, this instrument passes user-programmed electrical stimulus protocols to cells within the wells of the microtiter plate.
# 24 hours before the assay on E-VIPR, HEK cells expressing human Nav1.8 were seeded in 384-well poly-lysine coated plates at 15,000-20,000 cells per well. […] Cells were grown in vented cap flasks, in 90% humidity and 5% CO2.
# 1) Pre-spotted compounds (in neat DMSO) into compound plates. […] Final compound plate volume was 80 μL (80-fold intermediate dilution from 1 μL DMSO spot; 160-fold final dilution after transfer to cell plate).
# 2) Prepared Hexyl Dye Solution.
# 3) Prepared cell plates. On the day of the assay, medium was aspirated and cells were washed three times with 100 μL of Bath1 Solution, maintaining 25 μL residual volume in each well.
# 4) Dispensed 25 μL per well of Hexyl Dye Solution into cell plates. Incubated for 20-35 minutes at room temp or ambient conditions.
# 5) Dispensed 80 μL per well of Bath1 into compound plates. Acid Yellow-17 (1 mM) was added and Potassium Chloride was altered from 4.5 to 20 mM depending on the NaV subtype and assay sensitivity.
# 6) Washed cell plates three times with 100 μL per well of Bath1, leaving 25 μL of residual volume. […] Incubated for 20-35 minutes at room temp/ambient condition.
# 7) Read Plate on E-VIPR. […] A pre-stimulus recording was performed for 0.5 seconds to obtain the un-stimulated intensities baseline. The stimulatory waveform was followed by 0.5 seconds of post-stimulation recording to examine the relaxation to the resting state.
# Data was analyzed and reported as normalized ratios of emission intensities measured in the 460 nm and 580 nm channels. The response as a function of time was reported as the ratios obtained using the following formula: […]
# The data was further reduced by calculating the initial (Ri) and final (Rf) ratios. These were the average ratio values during part or all of the pre-stimulation period, and during sample points during the stimulation period. The response to the stimulus R=Rf/Ri was then calculated and reported as a function of time.
# Control responses were obtained by performing assays in the presence of a compound with the desired properties (positive control), such as tetracaine, and in the absence of pharmacological agents (negative control). Responses to the negative (N) and positive (P) controls were calculated as above.
# Aqueous solubility study = type: physicochemical; conditions: for solubility at 24 h: thermodynamic from solid
# Protocol: The aqueous solubility of compound 9 and 9a were determined according to the following procedure. Solubility data was determined at ambient conditions by equilibrating the compound with water on a shaking bed for 24 hours, followed by centrifugation and separation of the saturated solutions. The pH value of each media was measured before centrifugation, and the saturated solutions were assayed by HPLC.
# [1] = Rat oral pharmacokinetic study; type: in vivo, Sprague Dawley rats; conditions: Sprague Dawley, mean ± SD
# Protocol: (§1) Sample Analysis. […] Before extraction, plasma samples were diluted using blank plasma at an appropriate dilution factor, as necessary, depending on the dose level. […] After centrifugation, the supernatant extract (10 μL) was injected onto the LC/MS/MS system. The HPLC system included a Phenomenex Synergy Kinetix C8 column, 2.6 micron, 2.0 mm diameter×75 mm long eluted with a gradient mobile phase consisting of 0.1% formic acid in water or in acetonitrile.
# (§2) The analytes were detected by MS/MS with Electrospray Ionization (ESI) in the mode of multiple reaction monitoring (MRM). […] The intra-day and inter-day assay accuracy was within 20% of the nominal values. The intra- and inter-day assay variability was ≦20%.
# (§3) Pharmacokinetic Data Analysis.
# (§4) Key pharmacokinetic parameters such as AUCall, AUCextra, Cmax, tmax, Cl, Vss and t1/2 were determined.
# (§5) Statistical Data Analysis. Descriptive statistical data of pharmacokinetic parameters were calculated, including the mean, standard deviation (SD), using Watson LIMS version 7.4 SP3 or Microsoft Excel 2000.
# Groups of male and female Sprague Dawley rats (n=3 per dose group) were administered single nominal oral doses of 10, 100, 400, 640, 1000 mg/kg (for males) and 30, 100, 300, 640, 1000 mg/kg (for females) of compound 9 by gavage. Compound 9 was formulated in either 30% PEG400 and 10% TPGS in water or 5% TPGS, 5% PVP-K30 in 50 mM Citrate, pH 5. Animals had free access to food and water before and after dosing. Blood samples (approximately 0.25 mL each) were collected via a carotid artery catheter prior to dosing and at 0.25, 0.5, 1, 2, 4, 8, 12, 24, 48 and 72 hours post dose. Each blood sample was collected into a tube that was kept on wet ice and contained potassium EDTA as the anticoagulant. Plasma was separated and stored at approximately −70° C. until analysis.
# [2] = Rat IV pharmacokinetic study; type: in vivo, Sprague Dawley rats; conditions: Sprague Dawley, male rat, single IV bolus 1 mg/kg of compound 9, DMI vehicle, analyte 9a in plasma; for AUC: male, rat, plasma, iv, 1 mg/kg
# Protocol: as §1, §2, §3, §4, §5
# Male Sprague Dawley rats (n=3) were administered a single nominal IV bolus dose of 1 mg/kg of compound 9 via a jugular vein cannula. […] Animals had free access to food and water before and after dosing. Blood samples (approximately 0.25 mL each) were collected via a carotid artery catheter prior to dosing and at 5 min, 10 min, 0.25, 0.5, 1, 2, 4, 8, 12, 24 hours post dose. Each blood sample was collected into a tube that was kept on wet ice and contained potassium EDTA as the anticoagulant. Plasma was separated and stored at approximately −70° C. until analysis.
# Plasma concentration vs. time data were subjected to noncompartmental pharmacokinetic (PK) analysis.
# [3] = Chemical and physical stability of crystalline Form B (XRPD, HPLC impurity profile, appearance); type: physicochemical
# Description: Chemically and physically stable means no changes were observed on the X-ray powder diffraction and HPLC impurity profiles (e.g., less than 0.2% variance) and there were no observed changes in physical appearance of the samples.
# [4] = female rat, single PO 30 mg/kg of compound 9, 5% TPGS/5% PVP-K30/50 mM Citrate pH 5, analyte 9a in plasma
# [5] = female rat, single PO 100 mg/kg of compound 9, 5% TPGS/5% PVP-K30/50 mM Citrate pH 5, analyte 9a in plasma
# [6] = female rat, single PO 300 mg/kg of compound 9, 5% TPGS/5% PVP-K30/50 mM Citrate pH 5, analyte 9a in plasma
# [7] = female rat, single PO 640 mg/kg of compound 9, 5% TPGS/5% PVP-K30/50 mM Citrate pH 5, analyte 9a in plasma
# [8] = female rat, single PO 1000 mg/kg of compound 9, 5% TPGS/5% PVP-K30/50 mM Citrate pH 5, analyte 9a in plasma
# [9] = male rat, single PO 10 mg/kg of compound 9, 5% TPGS/5% PVP-K30/50 mM Citrate pH 5, analyte 9a in plasma
# [10] = male rat, single PO 100 mg/kg of compound 9, 5% TPGS/5% PVP-K30/50 mM Citrate pH 5, analyte 9a in plasma
# [11] = male rat, single PO 400 mg/kg of compound 9, 5% TPGS/5% PVP-K30/50 mM Citrate pH 5, analyte 9a in plasma
# [12] = male rat, single PO 640 mg/kg of compound 9, 5% TPGS/5% PVP-K30/50 mM Citrate pH 5, analyte 9a in plasma
# [13] = male rat, single PO 1000 mg/kg of compound 9, 5% TPGS/5% PVP-K30/50 mM Citrate pH 5, analyte 9a in plasma
# Chain of human Nav1.8 (Q9Y5Y9 whole entry): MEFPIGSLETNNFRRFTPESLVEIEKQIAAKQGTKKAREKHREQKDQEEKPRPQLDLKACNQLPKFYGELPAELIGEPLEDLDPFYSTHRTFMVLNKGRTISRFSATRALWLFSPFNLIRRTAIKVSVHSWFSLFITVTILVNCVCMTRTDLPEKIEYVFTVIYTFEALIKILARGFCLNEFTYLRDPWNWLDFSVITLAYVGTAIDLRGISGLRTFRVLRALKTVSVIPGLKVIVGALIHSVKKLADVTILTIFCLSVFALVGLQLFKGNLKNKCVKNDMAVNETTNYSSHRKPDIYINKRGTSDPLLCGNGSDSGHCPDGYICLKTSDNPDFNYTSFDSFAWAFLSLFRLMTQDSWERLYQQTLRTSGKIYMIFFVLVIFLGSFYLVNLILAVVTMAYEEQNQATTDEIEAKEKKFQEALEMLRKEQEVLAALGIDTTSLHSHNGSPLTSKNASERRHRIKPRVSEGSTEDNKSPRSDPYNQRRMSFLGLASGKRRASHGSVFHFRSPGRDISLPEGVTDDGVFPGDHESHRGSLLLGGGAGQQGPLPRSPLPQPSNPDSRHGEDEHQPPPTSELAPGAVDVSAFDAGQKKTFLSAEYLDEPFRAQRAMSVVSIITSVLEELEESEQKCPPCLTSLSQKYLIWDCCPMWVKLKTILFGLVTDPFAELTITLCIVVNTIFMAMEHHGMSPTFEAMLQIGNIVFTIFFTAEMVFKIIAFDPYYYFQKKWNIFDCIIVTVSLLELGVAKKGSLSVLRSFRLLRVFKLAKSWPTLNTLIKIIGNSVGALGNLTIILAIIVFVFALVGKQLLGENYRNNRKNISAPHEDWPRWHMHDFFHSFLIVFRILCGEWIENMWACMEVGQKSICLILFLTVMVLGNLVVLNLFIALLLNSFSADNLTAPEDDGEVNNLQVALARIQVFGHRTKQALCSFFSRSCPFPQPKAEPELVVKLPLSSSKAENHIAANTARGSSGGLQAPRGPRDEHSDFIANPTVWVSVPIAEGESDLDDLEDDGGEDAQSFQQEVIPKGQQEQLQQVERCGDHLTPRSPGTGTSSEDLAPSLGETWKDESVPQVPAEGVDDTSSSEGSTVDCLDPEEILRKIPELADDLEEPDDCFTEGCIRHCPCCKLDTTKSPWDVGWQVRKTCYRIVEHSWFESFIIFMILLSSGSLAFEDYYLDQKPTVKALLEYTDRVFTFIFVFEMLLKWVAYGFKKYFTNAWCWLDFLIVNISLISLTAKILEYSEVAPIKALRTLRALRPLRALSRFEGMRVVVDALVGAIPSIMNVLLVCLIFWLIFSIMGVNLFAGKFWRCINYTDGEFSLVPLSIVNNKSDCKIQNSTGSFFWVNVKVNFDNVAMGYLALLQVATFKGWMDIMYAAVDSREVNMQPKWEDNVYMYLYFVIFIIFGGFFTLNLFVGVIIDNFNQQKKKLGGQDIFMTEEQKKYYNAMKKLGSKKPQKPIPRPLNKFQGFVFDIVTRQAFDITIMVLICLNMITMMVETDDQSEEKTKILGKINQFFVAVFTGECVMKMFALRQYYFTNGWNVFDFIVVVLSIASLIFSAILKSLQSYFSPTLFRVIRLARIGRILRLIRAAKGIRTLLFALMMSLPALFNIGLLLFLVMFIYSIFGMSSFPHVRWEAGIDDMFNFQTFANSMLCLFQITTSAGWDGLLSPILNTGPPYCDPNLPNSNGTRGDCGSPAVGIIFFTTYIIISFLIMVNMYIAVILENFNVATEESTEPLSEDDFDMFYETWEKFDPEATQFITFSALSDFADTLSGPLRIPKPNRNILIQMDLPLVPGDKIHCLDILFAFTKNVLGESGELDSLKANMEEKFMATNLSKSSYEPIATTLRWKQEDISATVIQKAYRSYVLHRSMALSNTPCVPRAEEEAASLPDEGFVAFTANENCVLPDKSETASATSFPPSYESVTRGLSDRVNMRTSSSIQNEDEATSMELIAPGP
compound,measurement,setting,value
"COc1cc(F)ccc1Oc1cc(Cl)c(Cl)cc1C(=O)Nc1ccn(COP(=O)(O)O)c(=O)c1 [Compound 1, (4-(4,5-dichloro-2-(4-fluoro-2-methoxyphenoxy)benzamido)-2-oxopyridin-1(2H)-yl)methyl dihydrogen phosphate]",IC50,human Nav1.8,0.004 µM
"COc1cc(F)ccc1Oc1cc(C(F)(F)C(F)(F)F)ccc1C(=O)Nc1ccn(COP(=O)(O)O)c(=O)c1 [Compound 2, (4-(2-(4-fluoro-2-methoxyphenoxy)-4-(perfluoroethyl)benzamido)-2-oxopyridin-1(2H)-yl)methyl dihydrogen phosphate]",IC50,human Nav1.8,0.028 µM
"Cc1cc(F)ccc1Oc1cc(C(F)(F)F)ccc1C(=O)Nc1cc[nH]c(=O)c1 [Compound 9a, 2-(4-fluoro-2-methylphenoxy)-N-(2-oxo-1,2-dihydropyridin-4-yl)-4-(trifluoromethyl)benzamide]",solubility at 24 h,"Aqueous solubility study; aqueous medium, simulated gastric fluid, pH 1.2, crystalline, ambient conditions, 24 hours, read-out: Solubility",< 1 µg/mL
same,Solubility,"Aqueous solubility study; pH 6.0, crystalline, ambient conditions, 24 hours",<1 µg/mL
same,solubility at 24 h,"Aqueous solubility study; water, pH 6.0, read-out: aqueous solubility in water",< 1 µg/mL
same,AUC,[1]; [4],99200 ± 6880 ng·h/mL
same,Cmax,[1]; [4],3330 ± 430 ng/mL
same,Tmax,[1]; [4],6.67 ± 2.31 h
same,half-life,[1]; [4],10.8 ± 1.6 h
same,AUC,[1]; [5],187000 ± 17500 ng·h/mL
same,Cmax,[1]; [5],5820 ± 580 ng/mL
same,Tmax,[1]; [5],12 h
same,half-life,[1]; [5],9.15 ± 0.44 h
same,AUC,[1]; [6],282000 ± 74200 ng·h/mL
same,Cmax,[1]; [6],7900 ± 1300 ng/mL
same,Tmax,[1]; [6],10.7 ± 2.31 h
same,half-life,[1]; [6],13.1 ± 2.65 h
same,AUC,[1]; [7],324000 ± 32800 ng·h/mL
same,Cmax,[1]; [7],10000 ± 1450 ng/mL
same,Tmax,[1]; [7],9.33 ± 2.31 h
same,half-life,[1]; [7],7.51 ± 1.86 h
same,AUC,[1]; [8],345000 ± 69600 ng·h/mL
same,Cmax,[1]; [8],10600 ± 3580 ng/mL
same,Tmax,[1]; [8],13.3 ± 9.24 h
same,half-life,[1]; [8],7.9 ± 3.37 h
same,AUC,[1]; [9],3600 ± 240 ng·h/mL
same,Cmax,[1]; [9],290 ± 50 ng/mL
same,Tmax,[1]; [9],5.33 ± 2.31 h
same,half-life,[1]; [9],3.8 ± 0.73 h
same,AUC,[1]; [10],24800 ± 4600 ng·h/mL
same,Cmax,[1]; [10],1670 ± 190 ng/mL
same,Tmax,[1]; [10],8 h
same,half-life,[1]; [10],5.36 ± 2.3 h
same,AUC,[1]; [11],68600 ± 25700 ng·h/mL
same,Cmax,[1]; [11],3740 ± 1250 ng/mL
same,Tmax,[1]; [11],5.67 ± 4.04 h
same,half-life,[1]; [11],5.2 ± 1.96 h
same,AUC,[1]; [12],74900 ± 24100 ng·h/mL
same,Cmax,[1]; [12],4760 ± 980 ng/mL
same,Tmax,[1]; [12],6 ± 3.46 h
same,half-life,[1]; [12],6.91 ± 1.84 h
same,AUC,[1]; [13],88500 ± 41000 ng·h/mL
same,Cmax,[1]; [13],4540 ± 910 ng/mL
same,Tmax,[1]; [13],6.67 ± 2.31 h
same,half-life,[1]; [13],7.95 ± 2.24 h
same,C0,[2],259 ng/mL
same,clearance,[2],18.7 mL/min/kg
same,Vd,[2]; read-out: Vss,3.77 L/kg
same,half-life,[2]; read-out: t½ (converted),2.43 h
same,AUC,[2]; read-out: AUCall,592 ng·h/mL
same,AUC,[2]; read-out: AUCextra,611 ng·h/mL
"Cc1cc(F)ccc1Oc1ccc(C(F)(F)F)cc1C(=O)Nc1ccn(COP(=O)(O)O)c(=O)c1 [Compound 10, (4-(2-(4-fluoro-2-methylphenoxy)-5-(trifluoromethyl)benzamido)-2-oxopyridin-1(2H)-yl)methyl dihydrogen phosphate]",IC50,human Nav1.8,0.086 µM
"Cc1cc(F)ccc1Oc1cc(Cl)ccc1C(=O)Nc1ccn(COP(=O)(O)O)c(=O)c1 [Compound 13, (4-(4-chloro-2-(4-fluoro-2-methylphenoxy)benzamido)-2-oxopyridin-1(2H)-yl)methyl dihydrogen phosphate]",IC50,human Nav1.8,0.329 µM
"O=C(Nc1ccn(COP(=O)(O)O)c(=O)c1)c1cc(C(F)(F)F)ccc1Oc1ccc(F)cc1 [Compound 18, (4-(2-(4-fluorophenoxy)-5-(trifluoromethyl)benzamido)-2-oxopyridin-1(2H)-yl)methyl dihydrogen phosphate]",IC50,human Nav1.8,0.457 µM
"Cc1cc(F)ccc1Oc1cc(C(F)(F)F)ccc1C(=O)Nc1ccn(COP(=O)(O)O)c(=O)c1 [crystalline Form B, (4-(2-(4-fluoro-2-methylphenoxy)-4-(trifluoromethyl)benzamido)-2-oxopyridin-1(2H)-yl)methyl dihydrogen phosphate]",chemical and physical stability,"[3]; 5° C./dry, 40° C./dry, 25° C. with relative humidity of up to 60%, 40° C. with relative humidity of up to 75%",chemically and physically stable for at least one month
same,chemical and physical stability,"[3]; open dish at 40° C., 40° C. with RH up to 75%, 25° C. with RH up to 60%, closed dish at 5° C. with a desiccator",chemically and physically stable for at least three months

# From US9163042B2, “Prodrugs of pyridone amides useful as modulators of sodium channels” (VERTEX PHARMACEUTICALS INCORPORATED, priority 2013, dated 2015)
